Experimental data from patent US20210267203A1, “PESTICIDALLY ACTIVE AZOLE-AMIDE COMPOUNDS” (SYNGENTA PARTICIPATIONS AG, priority 2018, published 2021).

Tests used:
Assay type in all cases: in vivo
[1] = tested on: Plutella xylostella (Diamond Back Moth); test: Example B5: Plutella xylostella (diamond back moth), artificial diet, 24-well, eggs; details: 192 h, application rate 200 ppm, 8 days after infestation, read-out: effect in at least one of the two categories (mortality or growth inhibition)
Description: Example B5: Plutella xylostella (Diamond Back Moth)
24-well microtiter plates with artificial diet were treated with aqueous test solutions prepared from 10,000 ppm DMSO stock solutions by pipetting. After drying, Plutella eggs were pipetted through a plastic stencil onto a gel blotting paper and the plate was closed with it. The samples were assessed for mortality and growth inhibition in comparison to untreated samples 8 days after infestation. The following compounds gave an effect of at least 80% in at least one of the two categories (mortality or growth inhibition) at an application rate of 200 ppm: […]

[2] = tested on: Myzus persicae (Green Peach Aphid); test: Example B8: Myzus persicae (green peach aphid), intrinsic activity; details: 120 h, test rate 12 ppm, sucrose solution, 24-well, 5 days after infestation
Excerpt: Example B8: Myzus persicae (Green Peach Aphid), Intrinsic Activity
Test compounds prepared from 10,000 ppm DMSO stock solutions were applied by pipette into 24-well microtiter plates and mixed with sucrose solution. The plates were closed with a stretched Parafilm. A plastic stencil with 24 holes was placed onto the plate and infested pea seedlings were placed directly on the Parafilm. The infested plate was closed with a gel blotting paper and another plastic stencil and then turned upside down. The samples were assessed for mortality 5 days after infestation.

[3] = tested on: Myzus persicae (Green Peach Aphid); test: Example B13: activity against Myzus persicae (green peach aphid), 96-well sucrose solution; details: 120 h, application rate 50 ppm, 5 days after infestation
Excerpt: Example B13: Activity Against Myzus persicae (Green Peach Aphid)
Test compounds prepared from 10,000 ppm DMSO stock solutions were applied by a liquid handling robot into 96-well microtiter plates and mixed with a sucrose solution. Parafilm was stretched over the 96-well microtiter plate and a plastic stencil with 96 holes was placed onto the plate. Aphids were sieved into the wells directly onto the Parafilm. The infested plates were closed with a gel blotting card and a second plastic stencil and then turned upside down. The samples were assessed for mortality 5 days after infestation.

[4] = tested on: Plutella xylostella (Diamondback Moth); test: Example B14: activity against Plutella xylostella (diamondback moth), 96-well artificial diet; details: 216 h, application rate 500 ppm, 9 days after infestation
Description: Example B14: Activity Against Plutella xylostella (Diamondback Moth)
96-well microtiter plates containing artificial diet were treated with aqueous test solutions, prepared from 10,000 ppm DMSO stock solutions, by a liquid handling robot. After drying, eggs (30 per well) were infested onto a netted lid which was suspended above the diet. The eggs hatch and L1 larvae move down to the diet. The samples were assessed for mortality 9 days after infestation.
The following compounds gave an effect of at least 80% average mortality at an application rate of 500 ppm: […]

[5] = tested on: Spodoptera littoralis (Egyptian Cotton Leaf Worm); test: Example B9: Spodoptera littoralis (Egyptian cotton leaf worm), cotton leaf discs sprayed, L1 larvae; details: foliar, 72 h, application rate 200 ppm, 3 days after infestation
Description: Example B9: Spodoptera littoralis (Egyptian Cotton Leaf Worm)
Cotton leaf discs were placed onto agar in 24-well microtiter plates and sprayed with aqueous test solutions prepared from 10,000 ppm DMSO stock solutions. After drying the leaf discs were infested with five L1 larvae. The samples were assessed for mortality, anti-feeding effect, and growth inhibition in comparison to untreated samples 3 days after infestation. Control of Spodoptera littoralis by a test sample is given when at least one of the three categories (i.e. mortality, anti-feedant effect, and growth inhibition) is higher than the untreated sample.

[6] = tested on: Diabrotica Balteata (Corn Root Worm); test: Example B1: Diabrotica balteata (corn root worm), maize sprouts sprayed, L2 larvae; details: 96 h, application rate 200 ppm, 4 days after infestation, read-out: effect in at least one of the two categories (mortality or growth inhibition)
Description: Example B1: Diabrotica Balteata (Corn Root Worm)
Maize sprouts placed onto an agar layer in 24-well microtiter plates were treated with aqueous test solutions prepared from 10,000 ppm DMSO stock solutions by spraying. After drying, the plates were infested with L2 larvae (6 to 10 per well). The samples were assessed for mortality and growth inhibition in comparison to untreated samples 4 days after infestation.
(§1) The following compounds gave an effect of at least 80% in at least one of the two categories (mortality or growth inhibition) at an application rate of 200 ppm: […]

[7] = tested on: Chilo suppressalis (Striped Rice Stemborer); test: Example B4: Chilo suppressalis (striped rice stemborer), artificial diet, L2 larvae; details: 144 h, application rate 200 ppm, 6 days after infestation
Description: Example B4: Chilo suppressalis (Striped Rice Stemborer)
24-well microtiter plates with artificial diet were treated with aqueous test solutions prepared from 10,000 ppm DMSO stock solutions by pipetting. After drying, the plates were infested with L2 larvae (6-8 per well). The samples were assessed for mortality, anti-feeding effect, and growth inhibition in comparison to untreated samples 6 days after infestation. Control of Chilo suppressalis by a test sample is given when at least one of the categories (i.e. mortality, anti-feedant effect, and growth inhibition) is higher than the untreated sample.

[8] = tested on: Euschistus heros (Neotropical Brown Stink Bug); test: Example B2: Euschistus heros (neotropical brown stink bug), soybean leaves sprayed, N2 nymphs; details: 120 h, application rate 200 ppm, 5 days after infestation, read-out: effect in at least one of the two categories (mortality or growth inhibition)
Description: Example B2: Euschistus heros (Neotropical Brown Stink Bug)
Soybean leaves on agar in 24-well microtiter plates were sprayed with aqueous test solutions prepared from 10,000 ppm DMSO stock solutions. After drying the leaves were infested with N2 nymphs. The samples were assessed for mortality and growth inhibition in comparison to untreated samples 5 days after infestation.
as §1

CC(c1ncnn1-c1ncccn1)N(CC1CC1)C(=O)c1cccc(C2CC2C(F)(F)F)c1 (centres unmarked) [P23, N-(cyclopropylmethyl)-N-[1-(2-pyrimidin-2-yl-1,2,4-triazol-3-yl)ethyl]-3-[2-(trifluoromethyl)cyclopropyl]benzamide]
≥ 80%: percent effect (mortality or growth inhibition) at 200 ppm [1] | mortality at 12 ppm [2] | mortality at 50 ppm [3] | mortality at 500 ppm [4]

CC(c1ncnn1-c1ncccn1)N(CC1CC1)C(=O)c1cc(OC2CC2)cc(C(F)(F)F)c1 (centres unmarked) [P51, 3-(cyclopropoxy)-N-(cyclopropylmethyl)-N-[1-(2-pyrimidin-2-yl-1,2,4-triazol-3-yl)ethyl]-5-(trifluoromethyl)benzamide]
≥ 80%: percent effect (mortality or growth inhibition) at 200 ppm [1] | percent control (mortality, anti-feedant effect or growth inhibition) at 200 ppm [5] | percent effect (mortality or growth inhibition) at 200 ppm [6] | mortality at 50 ppm [3] | mortality at 500 ppm [4]

CC(c1ncnn1-c1ncccn1)N(CC1CC1)C(=O)c1cccc(C2(C#N)CC2)c1 (centres unmarked) [P21, 3-(1-cyanocyclopropyl)-N-(cyclopropylmethyl)-N-[1-(2-pyrimidin-2-yl-1,2,4-triazol-3-yl)ethyl]benzamide]
≥ 80%: mortality at 12 ppm [2] | mortality at 50 ppm [3] | mortality at 500 ppm [4]

CC(NC(=O)c1cc(C2CC2)cc(C(F)(F)F)c1)c1ncnn1-c1ccc(Br)cn1 (centres unmarked) [P74, N-[1-[2-(5-bromo-2-pyridyl)-1,2,4-triazol-3-yl]ethyl]-3-cyclopropyl-5-(trifluoromethyl)benzamide]
≥ 80%: percent effect (mortality or growth inhibition) at 200 ppm [1] | percent control (mortality, anti-feedant effect or growth inhibition) at 200 ppm [7] | percent control (mortality, anti-feedant effect or growth inhibition) at 200 ppm [5] | percent effect (mortality or growth inhibition) at 200 ppm [6]

CC(NC(=O)c1cc(C(F)(F)F)cc(C2(C#N)CC2)c1)c1ncnn1-c1ccccn1 (centres unmarked) [P76, 3-(1-cyanocyclopropyl)-N-[1-[2-(2-pyridyl)-1,2,4-triazol-3-yl]ethyl]-5-(trifluoromethyl)benzamide]
≥ 80%: percent effect (mortality or growth inhibition) at 200 ppm [1] | percent control (mortality, anti-feedant effect or growth inhibition) at 200 ppm [7] | percent control (mortality, anti-feedant effect or growth inhibition) at 200 ppm [5] | percent effect (mortality or growth inhibition) at 200 ppm [6]

CC(c1ncnn1-c1ncccn1)N(CC1CC1)C(=O)c1cccc(C(F)(F)C2CC2)c1 (centres unmarked) [P40, 3-[cyclopropyl(difluoro)methyl]-N-(cyclopropylmethyl)-N-[1-(2-pyrimidin-2-yl-1,2,4-triazol-3-yl)ethyl]benzamide]
≥ 80%: percent effect (mortality or growth inhibition) at 200 ppm [1] | percent control (mortality, anti-feedant effect or growth inhibition) at 200 ppm [5] | percent effect (mortality or growth inhibition) at 200 ppm [6] | mortality at 50 ppm [3] | mortality at 500 ppm [4]

CC(c1ncnn1-c1ncccn1)N(CC1CC1)C(=O)c1cc(OC2CC2)cc(OC2CC2)c1 (centres unmarked) [P60, 3,5-bis(cyclopropoxy)-N-(cyclopropylmethyl)-N-[1-(2-pyrimidin-2-yl-1,2,4-triazol-3-yl)ethyl]benzamide]
≥ 80%: percent effect (mortality or growth inhibition) at 200 ppm [1] | percent effect (mortality or growth inhibition) at 200 ppm [6] | mortality at 50 ppm [3] | mortality at 500 ppm [4]

CC(c1ncnn1-c1ncccn1)N(CC1CC1)C(=O)c1cc(C(F)(F)F)cc(C(C)(C)C#N)n1 (centres unmarked) [P31, 6-(1-cyano-1-methyl-ethyl)-N-(cyclopropylmethyl)-N-[1-(2-pyrimidin-2-yl-1,2,4-triazol-3-yl)ethyl]-4-(trifluoromethyl)pyridine-2-carboxamide]
≥ 80%: percent effect (mortality or growth inhibition) at 200 ppm [1] | percent effect (mortality or growth inhibition) at 200 ppm [6] | mortality at 50 ppm [3] | mortality at 500 ppm [4]

CC(c1ncnn1-c1ncccn1)N(CC1CC1)C(=O)c1cc(C(F)(F)F)cc(C2(C#N)CC2)n1 (centres unmarked) [P33, 6-(1-cyanocyclopropyl)-N-(cyclopropylmethyl)-N-[1-(2-pyrimidin-2-yl-1,2,4-triazol-3-yl)ethyl]-4-(trifluoromethyl)pyridine-2-carboxamide]
≥ 80%: percent effect (mortality or growth inhibition) at 200 ppm [1] | percent effect (mortality or growth inhibition) at 200 ppm [6] | mortality at 50 ppm [3] | mortality at 500 ppm [4]

CC(c1ncnn1-c1ncccn1)N(CC1CC1)C(=O)c1cc(C(F)(F)F)cc(C2(C(F)(F)F)CC2(F)F)c1 (centres unmarked) [P41, N-(cyclopropylmethyl)-3-[2,2-difluoro-1-(trifluoromethyl)cyclopropyl]-N-[1-(2-pyrimidin-2-yl-1,2,4-triazol-3-yl)ethyl]-5-(trifluoromethyl)benzamide]
≥ 80%: percent effect (mortality or growth inhibition) at 200 ppm [1] | percent control (mortality, anti-feedant effect or growth inhibition) at 200 ppm [5] | percent effect (mortality or growth inhibition) at 200 ppm [6] | percent effect (mortality or growth inhibition) at 200 ppm [8] | mortality at 500 ppm [4]

CC(NC(=O)c1cc(C(F)(F)F)cc(C(F)(F)C2CCC2)c1)c1ncnn1-c1ncccn1 (centres unmarked) [P66, 3-[cyclobutyl(difluoro)methyl]-N-[1-(2-pyrimidin-2-yl-1,2,4-triazol-3-yl)ethyl]-5-(trifluoromethyl)benzamide]
≥ 80%: percent control (mortality, anti-feedant effect or growth inhibition) at 200 ppm [7]

CC(c1ncnn1-c1ncccn1)N(CC1CC1)C(=O)c1cc(C(F)(F)F)nc(S(C)(=O)=O)c1 (centres unmarked) [P53, N-(cyclopropylmethyl)-2-methylsulfonyl-N-[1-(2-pyrimidin-2-yl-1,2,4-triazol-3-yl)ethyl]-6-(trifluoromethyl)pyridine-4-carboxamide]
≥ 80%: percent effect (mortality or growth inhibition) at 200 ppm [8]

CC(c1ncnn1-c1ncccn1)N(CC1CC1)C(=O)c1cc(C(F)(F)F)cc(C2(C)CC2(F)F)c1 (centres unmarked) [P44, N-(cyclopropylmethyl)-3-(2,2-difluoro-1-methyl-cyclopropyl)-N-[1-(2-pyrimidin-2-yl-1,2,4-triazol-3-yl)ethyl]-5-(trifluoromethyl)benzamide]
≥ 80%: percent effect (mortality or growth inhibition) at 200 ppm [1] | percent control (mortality, anti-feedant effect or growth inhibition) at 200 ppm [5] | percent effect (mortality or growth inhibition) at 200 ppm [6] | mortality at 50 ppm [3] | percent effect (mortality or growth inhibition) at 200 ppm [8] | mortality at 500 ppm [4]
